Reference: patent US10669296B2, “LXR agonists and uses thereof” (Rgenix, Inc., priority 2014, dated 2020)

System: ApoE
Test: ApoE gene expression analysis by qRT-PCR in MeWo cancer cells
Format: cell-based
Details: 48 h; for Emax at 1 µM / Emax at 10 µM: read-out: ApoE gene expression in relation to GW3965 at 1 μM (100%)
Protocol: Cancer cells (MeWo) were treated in presence of drug or control (DMSO) at indicated concentrations for 48 h. RNA was extracted from whole cell lysates using the Total RNA Purification Kit (17200, Norgen, Thorold, Canada). 600 ng of total RNA was then reverse transcribed into cDNA using the Verso cDNA Synthesis Kit (AB-1453/B, Fisher Scientific). 6 ng of the resulting cDNA was then mixed with SYBR green PCR Master Mix (4309155, Applied Biosystems) and the appropriate primers. Each reaction was performed in quadruplicate, and mRNA expression was quantified by performing real-time PCR amplification using a StepOne Plus Real-Time PCR System (Applied Biosystems). GAPDH was used as an endogenous control for normalization. EC50 values were calculated using Prism6 software and plotting expression values versus drug concentration. The following primers were used: [table] The results are shown in relation to GW3965 ApoE expression at 1 μM (i.e. 100%).

SMILES	Emax at 1 µM (Homo sapiens, MeWo, 1 μM) [%]	Emax at 10 µM (Homo sapiens, MeWo, 10 μM) [%]	EC50 (Homo sapiens, MeWo) [µM]	ApoE gene expression in relation to GW3965 at 1 μM (100%) (1 μM)	ApoE gene expression in relation to GW3965 at 1 μM (100%) (10 μM)	EC50 [µM]
CS(=O)(=O)NC(=O)Cc1cccc(OCCCN(Cc2cccc(C(F)(F)F)c2Cl)CC(c2ccccc2)c2ccccc2)c1 [Compound 2, 2-{3-[3-({[2-chloro-3-(trifluoromethyl)phenyl]methyl}(2,2-diphenylethyl)amino)propoxy]phenyl}-N-methanesulfonylacetamide]	> 40	> 40				
O=C(O)c1cccc(OCCCN(Cc2cccc(C(F)(F)F)c2Cl)CC(c2ccccc2)c2ccccc2)c1 [Compound 3, 3-[3-({[2-chloro-3-(trifluoromethyl)phenyl]methyl}(2,2-diphenylethyl)amino)propoxy]benzoic acid]	> 40	< 40				
CC(C)(O)c1cccc(OCCCN(Cc2cccc(C(F)(F)F)c2Cl)CC(c2ccccc2)c2ccccc2)c1 [Compound 4, 2-{3-[3-({[2-chloro-3-(trifluoromethyl)phenyl]methyl}(2,2-diphenylethyl)amino)propoxy]phenyl}propan-2-ol]	> 40	> 40	< 1			
O=C1Cc2cc(OCCCN(Cc3cccc(C(F)(F)F)c3Cl)CC(c3ccccc3)c3ccccc3)ccc2CO1 [Compound 6, 6-[3-({[2-chloro-3-(trifluoromethyl)phenyl]methyl}(2,2-diphenylethyl)amino)propoxy]-3,4-dihydro-1H-2-benzopyran-3-one]	> 80	> 40	< 0.3			
CS(=O)(=O)c1cccc(OCCCN(Cc2cccc(C(F)(F)F)c2Cl)CC(c2ccccc2)c2ccccc2)c1 [Compound 7, {[2-chloro-3-(trifluoromethyl)phenyl]methyl}(2,2-diphenylethyl)[3-(3-methanesulfonylphenoxy)propyl]amine]	> 80	> 40	< 1			
O=C(O)Cc1cccc(OCCCN(Cc2cccc(OC(F)(F)F)c2)CC(c2ccccc2)c2ccccc2)c1 [Compound 24]	> 40	> 40				
O=C(O)Cc1cccc(OCCCN(Cc2cccc(OC(F)(F)C(F)F)c2)CC(c2ccccc2)c2ccccc2)c1 [Compound 25, 2-(3-{3[(2,2-diphenylethyl)({[3-(1,1,2,2-tetrafluoroethoxy)phenyl]methyl})amino]propoxy}phenyl)acetic acid]	> 40	< 40				
O=C(O)Cc1cccc(OCCCN(Cc2cccc3c2OC(F)(F)O3)CC(c2ccccc2)c2ccccc2)c1 [Compound 26, 2[3-(3-{[(2,2-difluoro-2H-1,3-benzodioxol-4-yl)methyl](2,2-diphenylethyl)amino}propoxy)phenyl]acetic acid]	< 40	< 40				
C[C@H](CCO[C@@H]1CCCN(S(C)(=O)=O)C1)N(Cc1cccc(C(F)(F)F)c1Cl)CC(c1ccccc1)c1ccccc1 [Compound 30, {[2-chloro-3-(trifluoromethyl)phenyl]methyl}(2,2-diphenylethyl)[(2R)-4-{[(3R)-1-methanesulfonylpiperidin-3-yl]oxy}butan-2-yl]amine]	> 40	> 80				
CS(=O)(=O)c1cc(OCCCN(Cc2cccc(C(F)(F)F)c2Cl)CC(c2ccccc2)c2ccccc2)cc(F)c1C(=O)O [Compound 35, 4-[3-({[2-chloro-3-(trifluoromethyl)phenyl]methyl}(2,2-diphenylethyl)amino)propoxy]-2-fluoro-6-methanesulfonylbenzoic acid]	< 40	> 40	< 3			
CC(CCN(Cc1cccc(C(F)(F)F)c1Cl)CC(c1ccccc1)c1ccccc1)Oc1cc(F)c(CO)c(S(C)(=O)=O)c1 (stereo not drawn) [Compound 59, (4-{[4-({[2-chloro-3-(trifluoromethyl)phenyl]methyl}(2,2-diphenylethyl)amino)butan-2-yl]oxy}-2-fluoro-6-methanesulfonylphenyl)methanol]	> 40	> 40	< 0.3			
CC(C)(O)c1c(F)cc(OCCCN(Cc2cccc(C(F)(F)F)c2Cl)CC(c2ccccc2)c2ccccc2)cc1S(C)(=O)=O [Compound 60, 2-{4-[3-({[2-chloro-3-(trifluoromethyl)phenyl]methyl}(2,2-diphenylethyl)amino)propoxy]-2-fluoro-6-methanesulfonylphenyl}propan-2-ol]	> 40	> 80	< 0.3			
CS(=O)(=O)N1CC[C@H](OCCCN(Cc2cccc(C(F)(F)F)c2Cl)CC(c2ccccc2)c2ccccc2)C1 [Compound 61, {[2-chloro-3-(trifluoromethyl)phenyl]methyl}(2,2-diphenylethyl)(3-{[(3S)-1-methanesulfonylpyrrolidin-3-yl]oxy}propyl)amine]	> 40	> 80				
CS(=O)(=O)N1CC(OCCCN(Cc2cccc(C(F)(F)F)c2Cl)CC(c2ccccc2)c2ccccc2)C1 [Compound 62, {[2-chloro-3-(trifluoromethyl)phenyl]methyl} (2,2-diphenylethyl){3-[(1-methanesulfonylazetidin-3-yl)oxy]propyl}amine]	> 80	> 80	< 1			
CS(=O)(=O)N1CCC[C@@H](OCCCN(Cc2cccc(C(F)(F)F)c2Cl)CC(c2ccccc2)c2ccccc2)C1 [Compound 63, {[2-chloro-3-(trifluoromethyl)phenyl]methyl}(2,2-diphenylethyl)(3-{[(3R)-1-methanesulfonylpiperidin-3-yl]oxy}propyl)amine]				+++ (“+++” > 80% ApoE induction)	+++ (“+++” > 80% ApoE induction)	< 3
COC(=O)c1c(F)cc(OCCCN(Cc2cccc(C(F)(F)F)c2Cl)CC(c2ccccc2)c2ccccc2)cc1S(C)(=O)=O [Compound 64, methyl 4-[3-({[2-chloro-3-(trifluoromethyl)phenyl]methyl}(2,2-diphenylethyl)amino)propoxy]-2-fluoro-6-methanesulfonylbenzoate]	> 80	> 80	< 1			
CS(=O)(=O)c1cc(OCCCN(Cc2cccc(C(F)(F)F)c2Cl)CC(c2ccccc2)c2ccccc2)cc(F)c1C=O [Compound 65, 4-[3-({[2-chloro-3-(trifluoromethyl)phenyl]methyl}(2,2-diphenylethyl)amino)propoxy]-2-fluoro-6-methanesulfonyl-benzaldehyde]	> 80	> 80	< 1			
CS(=O)(=O)N1CCC[C@H](OCCCN(Cc2cccc(C(F)(F)F)c2Cl)CC(c2ccccc2)c2ccccc2)C1 [Compound 66, {[2-chloro-3-(trifluoromethyl)phenyl]methyl}(2,2-diphenylethyl)(3-{[(3S)-1-methanesulfonylpiperidin-3-yl]oxy}propyl)amine]				+++ (“+++” > 80% ApoE induction)	+++ (“+++” > 80% ApoE induction)	< 3
C[C@@H](CCOc1cc(F)c(CO)c(S(C)(=O)=O)c1)N(Cc1cccc(C(F)(F)F)c1Cl)CC(c1ccccc1)c1ccccc1 [Compound 71, {4-[(3S)-3-({[2-chloro-3-(trifluoromethyl)phenyl]methyl}(2,2-diphenylethyl)amino)butoxy]-2-fluoro-6-methanesulfonylphenyl}methanol]	< 40					
CS(=O)(=O)c1cc(OCCCN(Cc2cccc(C(F)(F)F)c2F)CC(c2ccccc2)c2ccccc2)cc(F)c1CO [Compound 72, (4-{3-[(2,2-diphenylethyl)({[2-fluoro-3-(trifluoromethyl)phenyl]methyl})amino]propoxy}-2-fluoro-6-methanesulfonylphenyl)methanol]	> 80	> 80				
CS(=O)(=O)c1cc(OCCCN(Cc2cccc(C(F)(F)F)c2)CC(c2ccccc2)c2ccccc2)cc(F)c1CO [Compound 73, (4-{3-[(2,2-diphenylethyl)({[3-(trifluoromethyl)phenyl]methyl})amino]propoxy}-2-fluoro-6-methanesulfonylphenyl)methanol]	> 80	> 80				
CS(=O)(=O)c1cc(OCCCN(Cc2cccc(OC(F)(F)F)c2)CC(c2ccccc2)c2ccccc2)cc(F)c1CO [Compound 74, (4-{3-[(2,2-diphenylethyl)({[3-(trifluoromethoxy)phenyl]methyl})amino]propoxy}-2-fluoro-6-methanesulfonylphenyl)methanol]	> 40	> 40				
CS(=O)(=O)c1cc(OCCCN(Cc2ccc(F)c(C(F)(F)F)c2)CC(c2ccccc2)c2ccccc2)cc(F)c1CO [Compound 75, (4-{3-[(2,2-diphenylethyl)({[4-fluoro-3-(trifluoromethyl)phenyl]methyl})amino]propoxy}-2-fluoro-6-methanesulfonylphenyl)methanol]	> 40	> 80				
CS(=O)(=O)c1cc(OCCCN(Cc2cccc(C(F)(F)F)c2Cl)CC(c2ccccc2)C2CCCCC2)cc(F)c1CO (stereo not drawn) [Compound 78, {4-[3-({[2-chloro-3-(trifluoromethyl)phenyl]methyl}(2-cyclohexyl-2-phenylethyl)amino)propoxy]-2-fluoro-6-methanesulfonylphenyl}methanol]	> 40					
